# Results published in patent US8247211B2, “Glycopeptide antibiotics” (American Cyanamid Company, priority 2001, dated 2012).
# Legend:
# [1] = tested on: Enterococcus sp.; assay: In vitro antibacterial evaluation: minimum inhibitory concentration (MIC), broth dilution method; assay type: cell-based
# In short: (§1)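 Susceptibility determined by NCCLS-recommended broth dilution (M7-A2), Muller-Hinton II […]. Concentration span 64-0.06 μg/mL, inoculum 5×10^5 CFU/mL. Isolates include strains resistant to methicillin, penicillin and/or vancomycin.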
# [2] = tested on: Escherichia coli; assay: as above; assay type: cell-based
# In short: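 First, organisms are seeded at 5×10^5 CFU/mL into Muller-Hinton II […]. Next, antibiotic is applied across 64-0.06 μg/mL by broth dilution (NCCLS M7-A2). Finally, the lowest inhibitory concentration is recorded as MIC.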
# [3] = tested on: Staphylococcus sp.; assay: as above; assay type: cell-based
# In short: as §1
# [4] = tested on: Streptococcus sp.; assay: as above; assay type: cell-based
# In short: as §1
# [5] = tested on: Staphylococcus aureus-SMITH (GC 4543); assay: Acute lethal infection in mice (ED50); assay type: in vivo; details: female CD-1 mice, intraperitoneal challenge, intravenous dose 30 min. after infection, 7 day survival ratios
# Protocol: The therapeutic effects of glycopeptide antibiotics of Formula I are determined against acute lethal infections with S. aureus (strain Smith), a penicillin resistant strain of S. pneumoniae (strain GC 1894), and a vancomycin resistant strain of E. fecalis (strain GC 6189 and GC 2246). Female mice, CD-1 (Charles River Laboratories), 20 +1-2 gm, are challenged by intraperitoneal injection of sufficient bacteria (suspended in Trypticase Soy Broth or hog gastric mucin) to kill non-treated controls within 24-48 hr. Antibacterial agents, contained in 0.2 mL of saline or 5% dextrose solution, are administered intravenously 30 min. after infection. Five mice are treated at each dose level. The 7 day survival ratios from 3 separate tests are pooled for calculation of median effective dose (ED50).
# [6] = broth dilution, 18 hours at 35° C.
# [7] = broth dilution, 5×10^5 CFU/mL, 18 hours at 35° C.
# [8] = 5×10^5 CFU/mL, 18 hours at 35° C.
smiles,measurement,setting,value
"CC(c1ccccc1)C1NC(=O)CNC(=O)C(CO)NC(=O)C(CC2CN(Cc3ccccc3)C(=N)N2C2OC(CO)C(O)C(O)C2O)NC(=O)C(CC2CNC(=N)N2)NC(=O)C(Cc2ccc(OC3OC(CO)C(OC4OC5COC6(OC5C(O)C4O)C4CC5CC(C4)CC6C5)C(O)C3O)cc2)NC1=O (stereo not drawn) [Example 80, Cyclo[3-(2-iminoimidazolidin-4-yl)alanyl-3-(1-benzyl-3-hexopyranosyl-2-iminoimidazolidin-4-yl)alanylserylglycyl-β-methylphenylalanyl-O-[4-O-[4,6-O-(2-adamantylidene)hexopyranosyl]hexopyranosyl]tyrosyl]]",MIC Enterococcus faecalis (GC 2242),"[1]; Enterococcus faecalis (GC 2242), broth dilution, 18 hours at 35° C.",32 µg/mL
same,MIC Enterococcus faecalis (GC 2691),"[1]; Enterococcus faecalis (GC 2691), broth dilution, 18 hours at 35° C.",64 µg/mL
same,MIC Enterococcus faecalis (GC 3059),"[1]; Enterococcus faecalis (GC 3059), broth dilution, 18 hours at 35° C.",64 µg/mL
same,MIC Enterococcus faecalis (ATCC 29212),[1]; strain ATCC 29212,64 µg/mL
same,MIC Enterococcus faecalis (GC 2242),[1]; strain GC 2242,32 µg/mL
same,MIC Enterococcus faecium (GC 2243),[1]; strain GC 2243,32 µg/mL
same,MIC Enterococcus faecalis (GC 2691),[1]; strain GC 2691,64 µg/mL
same,MIC Enterococcus faecalis (GC 3059),[1]; strain GC 3059,64 µg/mL
same,MIC Enterococcus faecalis (GC 4552),[1]; strain GC 4552,64 µg/mL
same,MIC Enterococcus faecalis (GC 4553),[1]; strain GC 4553,32 µg/mL
same,MIC Enterococcus faecalis (GC 4554),[1]; strain GC 4554,64 µg/mL
same,MIC Enterococcus faecium (GC 4556),[1]; strain GC 4556,64 µg/mL
same,MIC Enterococcus faecium (GC 4557),[1]; strain GC 4557,16 µg/mL
same,MIC Enterococcus avium (GC 4558),[1]; strain GC 4558,32 µg/mL
same,MIC Enterococcus faecalis (GC 6189),[1]; strain GC 6189,64 µg/mL
same,MIC Escherichia coli (ATCC 25922),[2]; strain ATCC 25922,>64 µg/mL
same,MIC Escherichia coli (GC 4559),[2]; strain GC 4559,>64 µg/mL
same,MIC Escherichia coli (GC 4560),[2]; strain GC 4560,8 µg/mL
same,MIC Coagulase Negative Staphylococcus (GC 4547),[3]; [6],32 µg/mL
same,MIC Coagulase Negative Staphylococcus (GC 4548),[3]; [6],32 µg/mL
same,MIC Coagulase Negative Staphylococcus (GC 4549),[3]; [6],32 µg/mL
same,MIC Coagulase Negative Staphylococcus (GC 4551),[3]; [6],32 µg/mL
same,MIC Coagulase Negative Staphylococcus (GC 6257),[3]; [6],8 µg/mL
same,MIC Staphylococcus aureus (ATCC 29213),[3]; [6],32 µg/mL
same,MIC Staphylococcus aureus (GC 1131),[3]; [6],32 µg/mL
same,MIC Staphylococcus aureus (GC 3051),[3]; [6],32 µg/mL
same,MIC Staphylococcus aureus (GC 3053),[3]; [6],64 µg/mL
same,MIC Staphylococcus aureus (GC 4541),[3]; [6],32 µg/mL
same,MIC Staphylococcus aureus (GC 4542),[3]; [6],32 µg/mL
same,MIC Staphylococcus aureus (GC 4544),[3]; [6],32 µg/mL
same,MIC Staphylococcus aureus (GC 4545),[3]; [6],32 µg/mL
same,MIC Staphylococcus aureus SMITH (GC 4543),[3]; [6],32 µg/mL
same,MIC Staphylococcus haemolyticus (GC 4546),[3]; [6],32 µg/mL
same,MIC Staphylococcus aureus-SMITH (GC 4543),"[3]; strain SMITH GC 4543, broth dilution, 18 hours at 35° C.",32 µg/mL
same,MIC Streptococcus agalactiae (GC 4564),"[4]; Streptococcus agalactiae (GC 4564), broth dilution, 18 hours at 35° C.",8 µg/mL
same,MIC Streptococcus pneumoniae (ATCC 6301),"[4]; Streptococcus pneumoniae (ATCC 6301), broth dilution, 18 hours at 35° C.",8 µg/mL
same,MIC Streptococcus pneumoniae (GC 1894),"[4]; Streptococcus pneumoniae (GC 1894), broth dilution, 18 hours at 35° C.",4 µg/mL
same,MIC Streptococcus pneumoniae (GC 4565),"[4]; Streptococcus pneumoniae (GC 4565), broth dilution, 18 hours at 35° C.",16 µg/mL
same,MIC Streptococcus pyogenes (GC 4563),"[4]; Streptococcus pyogenes (GC 4563), broth dilution, 18 hours at 35° C.",8 µg/mL
same,MIC Streptococcus pneumoniae (ATCC 6301),[4]; strain ATCC 6301,8 µg/mL
same,MIC Streptococcus pneumoniae (GC 1894),[4]; strain GC 1894,4 µg/mL
same,MIC Streptococcus pyogenes (GC 4563),[4]; strain GC 4563,8 µg/mL
same,MIC Streptococcus agalactiae (GC 4564),[4]; strain GC 4564,8 µg/mL
same,MIC Streptococcus pneumoniae (GC 4565),[4]; strain GC 4565,16 µg/mL
same,"median effective dose (ED50), Staphylococcus aureus-SMITH (GC 4543)",[5],>8
COc1ccc(CC2OCC3OC(OC4C(CO)OC(Oc5ccc(CC6NC(=O)C(C(C)c7ccccc7)NC(=O)CNC(=O)C(CO)NC(=O)C(C(O)C7CNC(=N)N7C7OC(CO)C(O)C(O)C7O)NC(=O)C(C(O)C7CNC(=N)N7)NC6=O)cc5)C(O)C4O)C(O)C(O)C3O2)cc1 (stereo not shown) [Example 103],MIC Enterococccus avium (GC 4558),[1]; [7],8 µg/mL
same,MIC Enterococccus faecalis (ATCC 29212),[1]; [7],4 µg/mL
same,MIC Enterococccus faecalis (GC 2691),[1]; [7],8 µg/mL
same,MIC Enterococccus faecalis (GC 3059),[1]; [7],8 µg/mL
same,MIC Enterococccus faecalis (GC 4552),[1]; [7],8 µg/mL
same,MIC Enterococccus faecalis (GC 4553),[1]; [7],8 µg/mL
same,MIC Enterococccus faecalis (GC 4554),[1]; [7],8 µg/mL
same,MIC Enterococccus faecalis (GC 6189),[1]; [7],4 µg/mL
same,MIC Enterococccus faecium (GC 2243),[1]; [7],4 µg/mL
same,MIC Enterococccus faecium (GC 4556),[1]; [7],4 µg/mL
same,MIC Enterococccus faecium (GC 4557),[1]; [7],2 µg/mL
same,MIC Enterococcus faecalis (GC 2242),[1]; [7],4 µg/mL
same,MIC Escherichia coli (ATCC 25922),[2]; [8],64 µg/mL
same,MIC Escherichia coli (GC 4559),[2]; [8],64 µg/mL
same,MIC Escherichia coli (GC 4560),[2]; [8],1 µg/mL
same,MIC Staphylococcus aureus (ATCC 29213),[3]; strain ATCC 29213,2 µg/mL
same,MIC Staphylococcus aureus (GC 1131),[3]; strain GC 1131,2 µg/mL
same,MIC Staphylococcus aureus (GC 3051),[3]; strain GC 3051,1 µg/mL
same,MIC Staphylococcus aureus (GC 3053),[3]; strain GC 3053,2 µg/mL
same,MIC Staphylococcus aureus (GC 4541),[3]; strain GC 4541,2 µg/mL
same,MIC Staphylococcus aureus (GC 4542),[3]; strain GC 4542,2 µg/mL
same,MIC Staphylococcus aureus-SMITH (GC 4543),"[3]; strain GC 4543, 18 hours at 35° C.",1 µg/mL
same,MIC Staphylococcus aureus-SMITH (GC 4543),"[3]; strain GC 4543, broth dilution, 18 hours at 35° C.",1 µg/mL
same,MIC Staphylococcus aureus (GC 4544),[3]; strain GC 4544,2 µg/mL
same,MIC Staphylococcus aureus (GC 4545),[3]; strain GC 4545,1 µg/mL
same,MIC Staphylococcus haemolyticus (GC 4546),[3]; strain GC 4546,1 µg/mL
same,MIC Staphylococcus haemolyticus (GC 4546),"[3]; strain GC 4546, broth dilution, 18 hours at 35° C.",1 µg/mL
same,MIC Coagulase Negative Staphylococcus (GC 4547),[3]; strain GC 4547,2 µg/mL
same,MIC Coagulase Negative Staphylococcus (GC 4547),"[3]; strain GC 4547, broth dilution, 18 hours at 35° C.",2 µg/mL
same,MIC Coagulase Negative Staphylococcus (GC 4548),[3]; strain GC 4548,1 µg/mL
same,MIC Coagulase Negative Staphylococcus (GC 4548),"[3]; strain GC 4548, broth dilution, 18 hours at 35° C.",1 µg/mL
same,MIC Coagulase Negative Staphylococcus (GC 4549),[3]; strain GC 4549,1 µg/mL
same,MIC Coagulase Negative Staphylococcus (GC 4549),"[3]; strain GC 4549, broth dilution, 18 hours at 35° C.",1 µg/mL
same,MIC Coagulase Negative Staphylococcus (GC 4551),[3]; strain GC 4551,2 µg/mL
same,MIC Coagulase Negative Staphylococcus (GC 4551),"[3]; strain GC 4551, broth dilution, 18 hours at 35° C.",2 µg/mL
same,MIC Coagulase Negative Staphylococcus (GC 6257),[3]; strain GC 6257,1 µg/mL
same,MIC Coagulase Negative Staphylococcus (GC 6257),"[3]; strain GC 6257, broth dilution, 18 hours at 35° C.",1 µg/mL
same,MIC Streptococcus agalactiae (GC 4564),[4]; [7],0.5 µg/mL
same,MIC Streptococcus pneumoniae (GC 1894),[4]; [7],0.12 µg/mL
same,MIC Streptococcus pneumoniae (GC 4565),[4]; [7],0.12 µg/mL
same,MIC Streptococcus pneumonine (ATCC 6301),[4]; [7],0.12 µg/mL
same,MIC Streptococcus pyogenes (GC 4563),[4]; [7],0.25 µg/mL
same,"median effective dose (ED50), Staphylococcus aureus-SMITH (GC 4543)",[5],0.28 mg/kg
